Measured values published in PubChem BioAssay AID330 (DTP/NCI, 2004).
Values joined by “and” are separate entries in the source; they are usually repeats but may differ in a detail not shown here. Equal values may be shown once. Inconclusive results and toxic doses are left out.

Test system: P388 leukemia ip, CD2F1 mice, survival T/C
Test: NCI In Vivo Anticancer Drug Screen. Data for tumor model P388 Leukemia (intraperitoneal) in CD2F1 (CDF1) mice
Conditions: endpoint: median survival time, higher = longer survival
Method in brief: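 Mice carrying the transplanted tumor received test compound or vehicle. Survival was recorded in each group, and the value is the treated-group measurement divided by that of the vehicle-treated control group.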

[1] = dose: 50.0 mg/kg/injection, schedule: Q01DX009 (ip), vehicle: saline with Tween-80
[2] = dose: 100.0 mg/kg/injection, schedule: Q01DX009 (ip), vehicle: saline with Tween-80
[3] = dose: 50.0 mg/kg/injection, schedule: Q01DX005 (ip), vehicle: Klucel (hydroxypropylcellulose) (HPC)
[4] = dose: 100.0 mg/kg/injection, schedule: Q01DX005 (ip), vehicle: Klucel (hydroxypropylcellulose) (HPC)
[5] = dose: 50.0 mg/kg/injection, schedule: Q01DX005 (ip), vehicle: saline with Tween-80
[6] = dose: 100.0 mg/kg/injection, schedule: Q01DX005 (ip), vehicle: saline with Tween-80
[7] = dose: 200.0 mg/kg/injection, schedule: Q01DX005 (ip), vehicle: saline with Tween-80

## CC1CC2Oc3ccc(Cl)cc3C(=O)N2O1 (stereo not given)
dose: 7.5 mg/kg/injection, schedule: Q01DX009 (ip), vehicle: saline
  T/C: 115 % of control
dose: 15.0 mg/kg/injection, schedule: Q01DX009 (ip), vehicle: saline
  T/C: 113 % of control
dose: 30.0 mg/kg/injection, schedule: Q01DX009 (ip), vehicle: saline
  T/C: 104 % of control

## COc1ccc2c(c1OC(=O)NCCCl)-c1cccc3c1C(C2)N(CCOC(=O)NCCCl)CC3 (stereo not given)
dose: 6.25 mg/kg/injection, schedule: Q04DX003 (ip), vehicle: saline + alcohol
  T/C: 109 % of control
dose: 12.5 mg/kg/injection, schedule: Q04DX003 (ip), vehicle: saline + alcohol
  T/C: 102 % of control
dose: 25.0 mg/kg/injection, schedule: Q04DX003 (ip), vehicle: saline + alcohol
  T/C: 96 % of control
dose: 50.0 mg/kg/injection, schedule: Q04DX003 (ip), vehicle: saline + alcohol
  T/C: 106 % of control
dose: 100.0 mg/kg/injection, schedule: Q04DX003 (ip), vehicle: saline + alcohol
  T/C: 98 % of control
dose: 200.0 mg/kg/injection, schedule: Q04DX003 (ip), vehicle: saline + alcohol
  T/C: 105 % of control

## N#Cc1c(N)nc2c(c1N)CC(CCl)O2 (stereo not given)
[1]
  T/C: 94 % of control
[2]
  T/C: 96 % of control
dose: 200.0 mg/kg/injection, schedule: Q01DX009 (ip), vehicle: saline with Tween-80
  T/C: 87 % of control

## CC(=O)Nc1ccc(C(=O)O)c(O)c1.CC(=O)Nc1ccc(C(=O)O)c(O)c1.[Cu]
dose: 6.25 mg/kg/injection, schedule: Q01DX001 (ip), vehicle: saline
  T/C: 98 % of control
dose: 12.5 mg/kg/injection, schedule: Q01DX001 (ip), vehicle: saline
  T/C: 97 % of control
dose: 25.0 mg/kg/injection, schedule: Q01DX001 (ip), vehicle: saline
  T/C: 94 % of control

## CCCCc1ccc(C)c(O)c1
[1]
  T/C: 110 % of control
[2]
  T/C: 98 % of control

## Cl/N=C1/C=CC=C/C1=N/Cl
dose: 50.0 mg/kg/injection, schedule: Q01DX005 (ip), vehicle: saline
  T/C: 106 % of control
dose: 100.0 mg/kg/injection, schedule: Q01DX005 (ip), vehicle: saline
  T/C: 104 % of control
dose: 200.0 mg/kg/injection, schedule: Q01DX005 (ip), vehicle: saline
  T/C: 101 % of control

## CCc1nc(N)nc(N)c1-c1ccc(N(C)Cc2ccccc2)c(N)c1
[3]
  T/C: 96 % of control
[4]
  T/C: 93 % of control
dose: 200.0 mg/kg/injection, schedule: Q01DX005 (ip), vehicle: Klucel (hydroxypropylcellulose) (HPC)
  T/C: 103 % of control

## COc1ccc2ncc(COC(C)=O)c(C)c2c1
[5]
  T/C: 99 % of control
[6]
  T/C: 99 % of control
[7]
  T/C: 93 % of control

## Oc1ccc2ccc3cccc4ccc1c2c34
[5]
  T/C: 100 % of control
[6]
  T/C: 100 % of control
[7]
  T/C: 100 % of control

## CC1(C)N=C(N)N=C(N)N1c1ccc(CCCCc2ccc(S(=O)(=O)F)cc2Cl)c(Cl)c1
dose: 0.13 mg/kg/injection, schedule: Q03HX016 (ip), vehicle: other
  T/C: 107 % of control
dose: 0.25 mg/kg/injection, schedule: Q03HX016 (ip), vehicle: other
  T/C: 116 % of control
dose: 0.5 mg/kg/injection, schedule: Q03HX016 (ip), vehicle: other
  T/C: 124 % of control
dose: 1.0 mg/kg/injection, schedule: Q01DX005 (ip), vehicle: other
  T/C: 111 % of control
dose: 1.98 mg/kg/injection, schedule: Q01DX009 (ip), vehicle: saline with Tween-80
  T/C: 165 % of control
dose: 2.0 mg/kg/injection, schedule: Q01DX005 (ip), vehicle: other
  T/C: 120 % of control
dose: 2.0 mg/kg/injection, schedule: Q04DX002 (ip), vehicle: other
  T/C: 109 % of control
dose: 2.82 mg/kg/injection, schedule: Q01DX009 (ip), vehicle: saline with Tween-80
  T/C: 168 % of control
dose: 3.89 mg/kg/injection, schedule: Q01DX009 (ip), vehicle: Klucel (hydroxypropylcellulose) (HPC)
  T/C: 152 % of control and 163 % of control
dose: 4.0 mg/kg/injection, schedule: Q01DX005 (ip), vehicle: other
  T/C: 121 % of control
dose: 4.0 mg/kg/injection, schedule: Q04DX002 (ip), vehicle: other
  T/C: 118 % of control
dose: 4.03 mg/kg/injection, schedule: Q01DX009 (ip), vehicle: saline with Tween-80
  T/C: 176 % of control
dose: 5.76 mg/kg/injection, schedule: Q01DX009 (ip), vehicle: saline with Tween-80
  T/C: 176 % of control
dose: 6.25 mg/kg/injection, schedule: Q01DX009 (ip), vehicle: distilled water + Tween-80
  T/C: 155 % of control
dose: 6.25 mg/kg/injection, schedule: Q01DX009 (ip), vehicle: saline with Tween-80
  T/C: 163 % of control
dose: 6.48 mg/kg/injection, schedule: Q01DX009 (ip), vehicle: Klucel (hydroxypropylcellulose) (HPC)
  T/C: 164 % of control
dose: 8.0 mg/kg/injection, schedule: Q01DX005 (ip), vehicle: other
  T/C: 119 % of control
dose: 8.0 mg/kg/injection, schedule: Q04DX002 (ip), vehicle: other
  T/C: 116 % of control
dose: 8.23 mg/kg/injection, schedule: Q01DX009 (ip), vehicle: saline with Tween-80
  T/C: 197 % of control
dose: 8.64 mg/kg/injection, schedule: Q01DX005 (ip), vehicle: Klucel (hydroxypropylcellulose) (HPC)
  T/C: 156 % of control
dose: 10.8 mg/kg/injection, schedule: Q01DX009 (ip), vehicle: Klucel (hydroxypropylcellulose) (HPC)
  T/C: 166 % of control and 182 % of control
dose: 11.76 mg/kg/injection, schedule: Q01DX009 (ip), vehicle: saline with Tween-80
  T/C: 212 % of control
dose: 12.5 mg/kg/injection, schedule: Q01DX009 (ip), vehicle: distilled water + Tween-80
  T/C: 155 % of control
dose: 16.0 mg/kg/injection, schedule: Q01DX005 (ip), vehicle: other
  T/C: 118 % of control
dose: 16.0 mg/kg/injection, schedule: Q04DX002 (ip), vehicle: other
  T/C: 106 % of control
dose: 16.8 mg/kg/injection, schedule: Q01DX009 (ip), vehicle: other
  T/C: 100 % of control
dose: 16.8 mg/kg/injection, schedule: Q01DX009 (ip), vehicle: saline with Tween-80
  T/C: 250 % of control
dose: 18.0 mg/kg/injection, schedule: Q01DX009 (ip), vehicle: Klucel (hydroxypropylcellulose) (HPC)
  T/C: 163 % of control and 214 % of control
dose: 24.0 mg/kg/injection, schedule: Q01DX005 (ip), vehicle: Klucel (hydroxypropylcellulose) (HPC)
  T/C: 164 % of control
dose: 24.0 mg/kg/injection, schedule: Q01DX009 (ip), vehicle: saline with Tween-80
  T/C: 256 % of control
dose: 25.0 mg/kg/injection, schedule: Q01DX009 (ip), vehicle: distilled water + Tween-80
  T/C: 160 % of control
dose: 25.0 mg/kg/injection, schedule: Q01DX009 (oral), vehicle: saline with Tween-80
  T/C: 102 % of control
dose: 30.0 mg/kg/injection, schedule: Q01DX009 (ip), vehicle: Klucel (hydroxypropylcellulose) (HPC)
  T/C: 163 % of control and 236 % of control
dose: 32.0 mg/kg/injection, schedule: Q04DX002 (ip), vehicle: other
  T/C: 111 % of control
dose: 34.28 mg/kg/injection, schedule: Q01DX009 (ip), vehicle: saline with Tween-80
  T/C: 228 % of control
dose: 40.0 mg/kg/injection, schedule: Q01DX005 (ip), vehicle: Klucel (hydroxypropylcellulose) (HPC)
  T/C: 172 % of control
dose: 50.0 mg/kg/injection, schedule: Q01DX009 (ip), vehicle: Klucel (hydroxypropylcellulose) (HPC)
  T/C: 87 % of control
dose: 50.0 mg/kg/injection, schedule: Q01DX009 (oral), vehicle: saline with Tween-80
  T/C: 102 % of control
dose: 75.0 mg/kg/injection, schedule: Q01DX009 (ip), vehicle: saline with Tween-80
  T/C: 195 % of control
dose: 89.0 mg/kg/injection, schedule: Q04DX003 (ip), vehicle: saline with Tween-80
  T/C: 173 % of control
dose: 100.0 mg/kg/injection, schedule: Q01DX009 (oral), vehicle: saline with Tween-80
  T/C: 107 % of control
dose: 110.0 mg/kg/injection, schedule: Q01DX009 (ip), vehicle: saline with Tween-80
  T/C: 86 % of control
dose: 133.0 mg/kg/injection, schedule: Q04DX003 (ip), vehicle: saline with Tween-80
  T/C: 188 % of control
dose: 200.0 mg/kg/injection, schedule: Q01DX009 (oral), vehicle: saline with Tween-80
  T/C: 105 % of control
dose: 200.0 mg/kg/injection, schedule: Q04DX003 (ip), vehicle: saline with Tween-80
  T/C: 307 % of control
dose: 400.0 mg/kg/injection, schedule: Q01DX009 (oral), vehicle: saline with Tween-80
  T/C: 99 % of control

## CC(C(=O)c1ccc(O)cc1)(c1nc2nnc(N)n2[nH]c1=O)c1nc2nnc(N)n2[nH]c1=O
dose: 60.0 mg/kg/injection, schedule: Q01DX005 (ip), vehicle: saline
  T/C: 98 % of control
dose: 120.0 mg/kg/injection, schedule: Q01DX005 (ip), vehicle: saline
  T/C: 98 % of control
dose: 240.0 mg/kg/injection, schedule: Q01DX005 (ip), vehicle: saline
  T/C: 97 % of control

## CC1CC(=O)c2cc3oc(=O)n(C)c3cc21 (stereo not given)
[3]
  T/C: 105 % of control
[4]
  T/C: 94 % of control
